Among the data in patent US20090215805A1, “4-Heteroaryl Pyrimidine Derivatives and use thereof as Protein Kinase Inhibitors” (Cyclacel Limited, priority 2005, published 2009) are Ki and IC50 values, retold here.

A value given as a limit tells only on which side of the number the result lay.

Sequence of GSK3 (GSK-3β) (A0A5F9DUX8 entry or part of it): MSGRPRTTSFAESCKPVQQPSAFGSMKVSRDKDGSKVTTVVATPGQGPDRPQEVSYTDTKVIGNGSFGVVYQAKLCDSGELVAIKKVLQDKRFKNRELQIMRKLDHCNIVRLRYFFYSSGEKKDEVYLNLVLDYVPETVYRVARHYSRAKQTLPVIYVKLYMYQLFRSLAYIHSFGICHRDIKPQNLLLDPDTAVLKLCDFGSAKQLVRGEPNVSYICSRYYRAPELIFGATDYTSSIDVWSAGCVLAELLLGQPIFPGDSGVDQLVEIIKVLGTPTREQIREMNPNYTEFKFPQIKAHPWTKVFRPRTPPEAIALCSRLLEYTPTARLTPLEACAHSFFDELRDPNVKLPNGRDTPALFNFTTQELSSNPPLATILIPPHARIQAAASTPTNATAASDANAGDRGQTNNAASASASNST
Sequence of DM Aur A (Dm AK-A) (Q9VGF9 entry or part of it): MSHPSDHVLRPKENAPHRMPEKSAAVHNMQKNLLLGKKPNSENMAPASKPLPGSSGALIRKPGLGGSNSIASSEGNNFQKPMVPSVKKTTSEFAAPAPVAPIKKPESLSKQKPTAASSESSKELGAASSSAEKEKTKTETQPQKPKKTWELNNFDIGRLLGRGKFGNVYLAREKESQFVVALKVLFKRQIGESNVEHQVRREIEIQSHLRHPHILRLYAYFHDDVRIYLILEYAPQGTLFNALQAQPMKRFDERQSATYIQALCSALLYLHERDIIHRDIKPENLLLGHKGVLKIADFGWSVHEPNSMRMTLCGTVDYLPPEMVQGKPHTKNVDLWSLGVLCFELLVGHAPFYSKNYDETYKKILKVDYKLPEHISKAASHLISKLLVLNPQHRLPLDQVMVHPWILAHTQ

The target in the first assay is DM Aur A (Dm AK-A) (Drosophila melanogaster, UniProt Q9VGF9). The assay is described as follows: Dm aurora A kinase assay (DM Aur A / Dm AK-A). The assay is classed as biochemical. The note with it: in vitro kinase assay. The protocol:
(§1) The compounds of the invention above were investigated for their ability to inhibit the enzymatic activity of various protein kinases. This was achieved by measurement of incorporation of radioactive phosphate from ATP into appropriate polypeptide substrates. Recombinant protein kinases and kinase complexes were produced or obtained commercially. Assays were performed using 96-well plates and appropriate assay buffers (typically 25 mM β-glycerophosphate, 20 mM MOPS, 5 mM EGTA, 1 mM DTT, 1 mM […], pH 7.4), into which were added 2-4 μg of active enzyme with appropriate substrates. The reactions were initiated by addition of Mg/ATP mix (15 mM MgCl2+100 μM ATP with 30-50 kBq per well of [γ-^32P]-ATP) and mixtures incubated as required at 30° C. Reactions were stopped on ice, followed by filtration through p81 filterplates or GF/C filterplates (Whatman Polyfiltronics, Kent, UK). After washing 3 times with 75 mM aq orthophosphoric acid, plates were dried, scintillant added and incorporated radioactivity measured in a scintillation counter (TopCount, Packard Instruments, Pangbourne, Berks, UK). Compounds for kinase assay were made up as 10 mM stocks in DMSO and diluted into 10% DMSO in assay buffer. Data was analysed using curve-fitting software (GraphPad Prism version 3.00 for Windows, GraphPad Software, San Diego Calif. USA) to determine IC50 values (concentration of test compound which inhibits kinase activity by 50%).
`CCOC(=O)c1[nH]c(C)c(-c2ccnc(Nc3ccc(N4CCOCC4)cc3)n2)c1C` [Compound 43] yielded a Ki of 103 nM.

Still in this assay, the particulars now being: values without asterisk (DM aurora A).
`CCOC(=O)c1[nH]c(C)c(-c2ccnc(Nc3ccc(N4CCOCC4)cc3)n2)c1C` [Compound 43] yielded an IC50 of 265 nM.

The next assay concerns the target T1, Human aurora kinase A (Homo sapiens, UniProt O14965).
T1 construct: purchased Upstate, Dundee, UK
T1 sequence (O14965 1-403): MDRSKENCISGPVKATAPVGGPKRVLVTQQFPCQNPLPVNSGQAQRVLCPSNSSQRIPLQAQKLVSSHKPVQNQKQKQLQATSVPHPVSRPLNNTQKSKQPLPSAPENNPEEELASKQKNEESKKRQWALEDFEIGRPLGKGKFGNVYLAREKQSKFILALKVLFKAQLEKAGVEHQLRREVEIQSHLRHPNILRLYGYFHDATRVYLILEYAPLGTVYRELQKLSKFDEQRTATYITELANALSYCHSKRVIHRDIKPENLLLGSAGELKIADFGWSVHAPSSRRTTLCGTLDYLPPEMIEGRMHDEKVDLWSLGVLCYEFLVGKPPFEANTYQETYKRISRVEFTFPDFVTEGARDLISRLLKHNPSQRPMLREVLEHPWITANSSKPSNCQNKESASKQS
As to the kind of experiment: Aurora-A (human) kinase assay. The assay is classed as biochemical. To be noted: values marked *: Human aurora kinase A; read-out: Aur A IC50 (*Human aurora kinase A). How it is done: This was achieved by measurement of incorporation of radioactive phosphate from ATP into Kemptide substrate (LRRASLG), upon phosphorylation by commercially obtained aurora-A (human, Upstate, Dundee, UK). Assays were performed using 96-well plates and appropriate assay buffers (20 mM Tris, 25 mM β-glycerophosphate, 5 mM EGTA, 1 mM DTT, 1 mM sodium vanadate, pH 7.5), into which were added 2-5 ng of active enzyme with 500 μM substrate (Kemptide). The reactions were initiated by addition of MgATP mix (15 mM MgCl2+100 μM ATP with 15-25 kBq per well of [γ-^32P]-ATP) and mixtures incubated for 30 min at 30° C. Reactions were stopped by addition of an equal volume of 75 mM aq orthophosphoric acid, followed by filtration through p81 filterplates (Whatman Polyfiltronics, Kent, UK). After washing 4 times with 75 mM aq orthophosphoric acid, plates were dried, scintillant added and incorporated radioactivity measured in a scintillation counter (TopCount, Packard Instruments, Pangbourne, Berks, UK). Compounds for kinase assay were made up as 10 mM stocks in DMSO and diluted into 10% DMSO in assay buffer. Data was analysed using curve-fitting software (XLfit version 4.0.2, IDBS, Guildford, Surrey, UK) to determine IC50 values (concentration of test compound which inhibits kinase activity by 50%).
With `Cc1c[nH]c(C)c1-c1ccnc(Nc2ccc(N3CCOCC3)c(Cl)c2)n1` [Compound 44], the IC50 was 261 nM.
Consider `Cc1c[nH]c(C)c1-c1ccnc(Nc2cc(Cl)c(N3CCOCC3)c(Cl)c2)n1` [Compound 45], for which the IC50 was greater than 10000 nM.
Take `CCOC(=O)c1[nH]c(C)c(-c2ccnc(Nc3ccc(N4CCOCC4)c(Cl)c3)n2)c1C` [Compound 46]: the IC50 was found to be 3030 nM.
Turning to `CCOC(=O)c1[nH]c(C)c(-c2ccnc(Nc3cc(Cl)c(N4CCOCC4)c(Cl)c3)n2)c1C` [Compound 47], the IC50 is greater than 10000 nM.
In the case of `Cc1cn(C)c(C)c1-c1ccnc(Nc2ccc(N3CCOCC3)cc2)n1` [Compound 48], the IC50 came to 222 nM.
`Cc1cn(C)c(C)c1-c1ccnc(Nc2ccc(N3CCOCC3)c(Cl)c2)n1` [Compound 49]: the IC50 was found to be 531 nM.
On to `Cc1cc(N2CCOCC2)ccc1Nc1nccc(-c2c(C)c[nH]c2C)n1` [Compound 50], for which the IC50 was greater than 10000 nM.
For the compound `Cc1c[nH]c(C)c1-c1ccnc(Nc2ccc(N3CC(C)OC(C)C3)cc2)n1` (stereo not shown) [Compound 51], the IC50 was 230 nM.
Same read-out and setting: in the case of `COc1cc(Nc2nccc(-c3c(C)[nH]c(C#N)c3C)n2)cc(OC)c1OC` [Compound 52] it was 168 nM; in that of `COc1cc(Nc2nccc(-c3c(C)c(C#N)n(C)c3C)n2)cc(OC)c1OC` [Compound 53], 125 nM.
Turning to `CCOC(=O)c1[nH]c(C)c(-c2ccnc(Nc3ccc(N4CCOCC4)c(OC)c3)n2)c1C` [Compound 54], the IC50 came out at 91 nM.

A further assay addresses CDK2/E (Homo sapiens, UniProt P24941). The assay is described as follows: CDK2/E in vitro kinase assay. The class given is biochemical.
Conditions: not given
How it is done:
as §1
For the compound `Cc1c(-c2ccnc(Nc3ccc(N(C)C)cc3)n2)c(C)n(C)c1C#N` [Compound 20], the Ki turned out to be 538 nM.
Same read-out and setting: the figure for `Cc1[nH]c(C#N)c(C)c1-c1ccnc(Nc2ccc(N3CCOCC3)cc2)n1` [Compound 24] is 574 nM.
Compound `COc1ccc(Nc2nccc(-c3c(C)c[nH]c3C)n2)cn1` [Compound 26] came in with an inhibition constant Ki of 861 nM.
`COc1cc(Nc2nccc(-c3c(C)[nH]c(C#N)c3C)n2)cc(OC)c1OC` [Compound 52] displayed a Ki of 759 nM.
On the same count and under the same terms, the figure for `COc1cc(Nc2nccc(-c3c(C)c(C#N)n(C)c3C)n2)cc(OC)c1OC` [Compound 53] is 1120 nM; for `CCOC(=O)c1[nH]c(C)c(-c2ccnc(Nc3ccc(N4CCOCC4)c(OC)c3)n2)c1C` [Compound 54] it is greater than 10000 nM.
The compound `COc1cc(Nc2nccc(-c3c(C)c[nH]c3C)n2)cc(OC)c1OC` [Compound 56] returned a Ki greater than 10000 nM.
For `COc1cc(Nc2nccc(-c3c(C)cn(C)c3C)n2)cc(OC)c1OC` [Compound 57], the Ki was greater than 10000 nM.
`CCOC(=O)c1[nH]c(C)c(-c2ccnc(Nc3cc(OC)c(OC)c(OC)c3)n2)c1C` [Compound 58]: the Ki was 4700 nM.

Another assay concerns the target GSK3 (GSK-3β) (Oryctolagus cuniculus, UniProt A0A5F9DUX8). The assay is described as follows: GSK-3 kinase assay. The class given is biochemical, rabbit. The note with it: in vitro kinase assay. The protocol:
GSK-3 was obtained from New England Biolabs (UK) Ltd., Hitchin, Herts. The recombinant enzyme was isolated from a strain of E. coli that carries a clone expressing GSK-3β derived from a rabbit skeletal muscle cDNA library [Wang, Q. M.; Fiol, C. J.; DePaoli-Roach, A. A.; Roach, P. J. J. Biol. Chem., 1994, 269, 14566]. Inhibition of GSK-3 function was assessed by measurement of phosphorylation of CREB phosphopeptide KRREILSRRPphosphoSYR in the presence of test compounds. Using a 96-well assay format, GSK3 (7.5 U) was incubated for 30 min at 30° C. in a total volume of 25 μL in 20 mM MOPS pH 7.2, 25 mM β-glycerophosphate, 5 mM EGTA, 1 mM DTT, 1 mM […], 40 μM CREB peptide, 15 mM MgCl2 and 100 μM ATP (containing 0.25 μCi [γ-^32P]-ATP) in the presence of varying concentrations of test compound. The samples were transferred to 96-well p81 filter plates (Whatman Polyfiltronics, Kent, UK), and the plates were washed 4 times with 200 μL/well of 75 mM aq orthophosphoric acid. Scintillation liquid (50 μL) was added to each well, and incorporated radioactivity for each sample was determined using a scintillation counter (TopCount, Packard Instruments, Pangboume, Berks, UK).
`Cc1c(-c2ccnc(Nc3ccc(N(C)C)cc3)n2)c(C)n(C)c1C#N` [Compound 20] returned a Ki of 11 nM.
In the case of `Cc1[nH]c(C#N)c(C)c1-c1ccnc(Nc2ccc(N3CCOCC3)cc2)n1` [Compound 24], the Ki came out at 127 nM.
`COc1ccc(Nc2nccc(-c3c(C)c[nH]c3C)n2)cn1` [Compound 26]: the affinity, expressed as Ki, was 167 nM.
